In ChEMBL document CHEMBL1201862, “PubChem BioAssay data set” (2004) one finds EC50, IC50 and AC50 data, which are given here for four molecules.

Each structure is given as a SMILES string. Active and inactive are the calls of the source.

For orientation: EC50 means the concentration giving half of the maximal effect. In general, IC50 refers to the point on the concentration scale where inhibition reaches its midpoint. A word on the AC50: it is the midpoint of the concentration-response curve, whichever way the signal moves.

For assay [1], the target named is T1, Endoribonuclease toxin MazF (Escherichia coli K-12, UniProt P0AE70).
T1 sequence (P0AE70 whole entry): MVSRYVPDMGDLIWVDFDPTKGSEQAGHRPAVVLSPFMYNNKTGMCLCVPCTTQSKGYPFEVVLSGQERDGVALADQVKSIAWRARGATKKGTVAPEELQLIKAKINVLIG
In words: fluorescent RNA oligo signal without MazF, dose response, counter-screen for MazEF activator project, biochemical, fluorescence, single-stranded RNase substrate (AID 588502). The assay is classed as functional. (The purpose of a counterscreen is to sort out artefacts and off-target activity.)

The target of assay [2] is T1, Endoribonuclease toxin MazF. Description: MazF toxin RNase activators, dose response, biochemical, fluorescence, single-stranded RNA substrate, uHTS hits (AID 588481). The assay is classed as functional.
Assay [3] can be described thus: cytotoxicity toward NIH3T3 fibroblasts, dose response, counter-screen, cell-based, ATP luminescence, mouse fibroblasts (AID 2010).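 Note: cells exposed to compound for about 90 hours before reading.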 The assay is classed as functional.
Another assay concerns the target T2, Protein RecA (Mycobacterium tuberculosis, UniProt P9WHJ3).
T2 sequence (P9WHJ3 whole entry): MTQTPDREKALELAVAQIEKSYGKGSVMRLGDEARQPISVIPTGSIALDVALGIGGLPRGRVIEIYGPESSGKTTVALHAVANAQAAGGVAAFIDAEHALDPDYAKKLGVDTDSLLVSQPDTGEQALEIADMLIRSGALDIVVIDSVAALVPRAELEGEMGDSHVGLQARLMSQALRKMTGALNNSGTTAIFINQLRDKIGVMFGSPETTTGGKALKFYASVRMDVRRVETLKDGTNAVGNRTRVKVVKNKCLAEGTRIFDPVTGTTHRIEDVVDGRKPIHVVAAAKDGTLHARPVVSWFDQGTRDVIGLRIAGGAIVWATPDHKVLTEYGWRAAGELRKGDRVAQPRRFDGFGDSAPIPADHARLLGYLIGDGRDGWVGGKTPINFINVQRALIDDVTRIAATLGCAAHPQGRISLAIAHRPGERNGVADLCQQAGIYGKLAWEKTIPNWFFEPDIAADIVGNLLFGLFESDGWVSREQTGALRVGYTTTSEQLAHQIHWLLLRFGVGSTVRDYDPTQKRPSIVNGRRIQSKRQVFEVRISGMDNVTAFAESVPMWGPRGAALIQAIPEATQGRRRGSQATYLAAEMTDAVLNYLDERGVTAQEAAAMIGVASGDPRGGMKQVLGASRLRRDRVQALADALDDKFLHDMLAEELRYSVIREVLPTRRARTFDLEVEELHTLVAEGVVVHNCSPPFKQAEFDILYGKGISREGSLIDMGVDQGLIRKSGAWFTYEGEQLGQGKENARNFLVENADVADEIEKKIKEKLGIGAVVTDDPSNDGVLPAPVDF
Description: Fluorescence Cell-Free Homogeneous Dose Retest to Identify Inhibitors of RecA-Intein Splicing Activity. [Related pubchem assays (depositor defined):AID2097, AID2223, AID489010, AID492950]. It counts as functional.

Assay [4] addresses T3, Tyrosyl-DNA phosphodiesterase 2 (Homo sapiens, UniProt O95551).
T3 sequence (O95551 whole entry): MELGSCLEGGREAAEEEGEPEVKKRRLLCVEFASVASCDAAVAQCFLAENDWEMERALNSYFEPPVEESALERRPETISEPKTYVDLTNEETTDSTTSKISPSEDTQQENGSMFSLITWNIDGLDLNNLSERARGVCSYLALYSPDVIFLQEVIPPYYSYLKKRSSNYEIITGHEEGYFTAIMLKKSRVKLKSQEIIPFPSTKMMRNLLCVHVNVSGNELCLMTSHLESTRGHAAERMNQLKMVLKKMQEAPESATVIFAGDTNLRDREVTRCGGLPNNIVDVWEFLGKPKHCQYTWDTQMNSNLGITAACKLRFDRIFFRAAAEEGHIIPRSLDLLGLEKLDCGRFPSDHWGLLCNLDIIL
Description: human TDP2 enzyme inhibitors, dose response, biochemical, epi absorbance, IC50 (AID 743297).

For a further assay, the system named is INS1. Description: beta cell apoptosis inhibitors, cytokine rescue, dose response, luminescence, retest (AID 449756).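 Note: cell death triggered by IL-1 beta plus TNF-alpha plus IFN-gamma mixture; protective hits raise ATP signal compared with cytokine alone wells.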 The assay is classed as functional, cell-based. As to conditions: Rattus norvegicus.
The target in assay [5] is T4, Apoptotic protease-activating factor 1 (Homo sapiens, UniProt O14727).
T4 sequence (O14727 whole entry): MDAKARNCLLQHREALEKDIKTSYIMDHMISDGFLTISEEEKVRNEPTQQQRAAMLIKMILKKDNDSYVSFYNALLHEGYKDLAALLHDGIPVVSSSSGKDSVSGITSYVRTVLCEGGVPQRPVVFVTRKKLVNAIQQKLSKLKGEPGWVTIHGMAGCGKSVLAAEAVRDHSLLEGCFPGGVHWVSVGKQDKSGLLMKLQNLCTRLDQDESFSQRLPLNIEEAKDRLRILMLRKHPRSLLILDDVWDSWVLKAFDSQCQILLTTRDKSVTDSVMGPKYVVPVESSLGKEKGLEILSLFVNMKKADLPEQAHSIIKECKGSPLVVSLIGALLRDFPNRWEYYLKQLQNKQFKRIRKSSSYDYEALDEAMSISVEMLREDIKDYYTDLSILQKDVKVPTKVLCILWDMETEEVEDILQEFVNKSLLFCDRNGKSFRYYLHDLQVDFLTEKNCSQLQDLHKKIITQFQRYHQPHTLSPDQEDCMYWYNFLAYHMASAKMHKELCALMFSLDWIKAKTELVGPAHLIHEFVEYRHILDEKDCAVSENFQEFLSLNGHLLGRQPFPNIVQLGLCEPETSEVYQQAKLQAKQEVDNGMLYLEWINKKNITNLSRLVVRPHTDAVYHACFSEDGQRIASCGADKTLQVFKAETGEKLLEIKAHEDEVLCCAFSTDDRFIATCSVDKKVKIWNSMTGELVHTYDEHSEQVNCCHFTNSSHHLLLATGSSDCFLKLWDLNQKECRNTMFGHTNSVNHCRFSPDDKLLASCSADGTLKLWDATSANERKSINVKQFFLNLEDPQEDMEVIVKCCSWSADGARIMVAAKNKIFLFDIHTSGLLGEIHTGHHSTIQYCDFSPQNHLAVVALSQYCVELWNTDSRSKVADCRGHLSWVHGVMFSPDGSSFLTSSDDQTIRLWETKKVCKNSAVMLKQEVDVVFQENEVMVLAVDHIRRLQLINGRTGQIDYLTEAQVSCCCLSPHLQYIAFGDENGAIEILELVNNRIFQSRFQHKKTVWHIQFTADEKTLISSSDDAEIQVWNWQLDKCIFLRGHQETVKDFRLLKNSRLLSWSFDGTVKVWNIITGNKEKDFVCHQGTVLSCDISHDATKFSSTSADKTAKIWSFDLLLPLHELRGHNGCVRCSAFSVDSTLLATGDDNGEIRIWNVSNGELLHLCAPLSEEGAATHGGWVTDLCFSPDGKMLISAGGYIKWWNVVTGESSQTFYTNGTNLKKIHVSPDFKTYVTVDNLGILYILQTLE
The assay is classed as functional.

In assay [6] the target is T5, Replicative DNA helicase DnaB (Mycobacterium tuberculosis, UniProt P9WMR3).
T5 sequence (P9WMR3 whole entry): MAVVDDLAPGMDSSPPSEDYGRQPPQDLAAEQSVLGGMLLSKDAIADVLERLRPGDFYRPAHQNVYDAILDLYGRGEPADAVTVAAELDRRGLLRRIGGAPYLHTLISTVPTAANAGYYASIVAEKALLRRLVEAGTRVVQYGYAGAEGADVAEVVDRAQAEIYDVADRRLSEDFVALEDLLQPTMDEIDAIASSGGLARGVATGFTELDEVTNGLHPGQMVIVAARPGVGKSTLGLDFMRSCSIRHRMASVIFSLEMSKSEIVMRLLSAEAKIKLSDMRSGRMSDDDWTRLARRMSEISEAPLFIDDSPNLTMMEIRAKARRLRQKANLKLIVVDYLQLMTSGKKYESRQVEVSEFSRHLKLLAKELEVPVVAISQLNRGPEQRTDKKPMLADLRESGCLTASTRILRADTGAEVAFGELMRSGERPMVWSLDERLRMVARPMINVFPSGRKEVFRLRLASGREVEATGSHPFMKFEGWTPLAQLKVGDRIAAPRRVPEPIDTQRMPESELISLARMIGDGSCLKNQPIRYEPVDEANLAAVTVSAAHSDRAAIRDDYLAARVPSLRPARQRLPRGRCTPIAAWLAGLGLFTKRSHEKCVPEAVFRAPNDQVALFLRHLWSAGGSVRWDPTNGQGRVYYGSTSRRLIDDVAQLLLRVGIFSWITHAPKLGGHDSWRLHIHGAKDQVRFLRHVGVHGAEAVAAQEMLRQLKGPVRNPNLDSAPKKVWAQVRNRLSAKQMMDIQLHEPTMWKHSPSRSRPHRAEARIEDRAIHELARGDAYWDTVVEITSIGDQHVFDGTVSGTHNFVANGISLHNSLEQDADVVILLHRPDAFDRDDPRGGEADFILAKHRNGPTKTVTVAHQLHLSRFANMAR
In words: DnaB intein splicing inhibitors, dose response, biochemical, cell-free fluorescence (AID 449749). It counts as functional.

Assay [7] has as its target Dual specificity tyrosine-phosphorylation-regulated kinase 1A (Rattus norvegicus, UniProt Q63470). The assay is classed as biochemical, Homo sapiens.
The nature of assay [8]: inhibitors of intracellular T. cruzi replication, confirmation, NIH3T3 host cells, beta-gal luminescence (AID 2044).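 Note: intracellular parasites grown in NIH/3T3 mouse fibroblasts as host cells; luminescent beta-galactosidase reporter signal from transgenic T. cruzi replicating inside host cells; inhibitors lower the luminescence signal.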 The assay is classed as functional, cell-based.
The subject of the next assay is HEK293. In words: inhibitors of LMP1-driven NF-kB reporter, dose response, cell-based, HEK293, luciferase, cherry-pick (AID 588343). The assay is classed as functional. As to conditions: Homo sapiens.
The target of another assay is Paired box protein Pax-8 (Homo sapiens, UniProt Q06710). In words: inhibitors of PAX8-driven TPO luciferase reporter, dose response, RMG-I cells, cherry-pick (AID 687027).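 Note: luciferase reporter driven by Pax8 target thyroperoxidase promoter measured by SteadyGlo luminescence.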 It counts as functional, cell-based. For orientation: Reporter assays use an easily measured gene product as a stand-in for the process of interest.
The target of another assay is T6, Caspase-6 (Homo sapiens, UniProt P55212).
T6 sequence (P55212 whole entry): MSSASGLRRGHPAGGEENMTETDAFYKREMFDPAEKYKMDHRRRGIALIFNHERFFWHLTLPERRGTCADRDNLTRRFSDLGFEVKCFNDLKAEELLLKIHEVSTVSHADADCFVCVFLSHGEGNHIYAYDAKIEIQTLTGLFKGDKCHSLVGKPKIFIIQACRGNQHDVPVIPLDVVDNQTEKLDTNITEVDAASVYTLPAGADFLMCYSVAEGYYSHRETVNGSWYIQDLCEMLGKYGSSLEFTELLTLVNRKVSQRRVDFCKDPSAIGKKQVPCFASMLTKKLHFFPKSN
In words: human caspase-6 inhibitors, dose response, biochemical, VEID-R110 fluorescence, cherry-pick (AID 720632).

In assay [9] the target is T7, Rac GTPase-activating protein 1 (Homo sapiens, UniProt Q9H0H5).
T7 sequence (Q9H0H5 whole entry): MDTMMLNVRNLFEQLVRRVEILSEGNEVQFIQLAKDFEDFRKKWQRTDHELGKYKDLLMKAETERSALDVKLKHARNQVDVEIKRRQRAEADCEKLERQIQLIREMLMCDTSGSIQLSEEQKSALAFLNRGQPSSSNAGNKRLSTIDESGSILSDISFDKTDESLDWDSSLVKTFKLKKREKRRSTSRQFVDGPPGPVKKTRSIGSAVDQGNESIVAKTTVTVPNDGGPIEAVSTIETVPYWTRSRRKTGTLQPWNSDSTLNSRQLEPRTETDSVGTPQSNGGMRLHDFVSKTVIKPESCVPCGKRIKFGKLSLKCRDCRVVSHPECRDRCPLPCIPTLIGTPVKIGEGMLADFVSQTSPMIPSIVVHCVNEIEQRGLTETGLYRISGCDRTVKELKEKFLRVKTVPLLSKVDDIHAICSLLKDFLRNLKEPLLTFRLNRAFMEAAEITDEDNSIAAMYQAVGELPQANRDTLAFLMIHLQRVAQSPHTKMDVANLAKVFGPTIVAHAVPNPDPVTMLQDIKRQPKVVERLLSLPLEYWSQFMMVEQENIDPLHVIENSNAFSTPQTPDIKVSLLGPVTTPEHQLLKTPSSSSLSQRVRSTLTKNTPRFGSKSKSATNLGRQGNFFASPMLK
Description: MgcRacGAP GTPase-activating activity inhibitors, confirmation, biochemical, ADP Hunter fluorescence, primary and confirmatory (AID 624330). The assay is classed as functional.

In a further assay the target is Genome polyprotein (dengue virus type 2, UniProt P29990). In words: Dengue-2 NS5 methyltransferase inhibitors, primary screen, biochemical, confirmation dose response (AID 588689). It counts as functional.
Sequence of Genome polyprotein (P29990 2492-3391 limits assumed): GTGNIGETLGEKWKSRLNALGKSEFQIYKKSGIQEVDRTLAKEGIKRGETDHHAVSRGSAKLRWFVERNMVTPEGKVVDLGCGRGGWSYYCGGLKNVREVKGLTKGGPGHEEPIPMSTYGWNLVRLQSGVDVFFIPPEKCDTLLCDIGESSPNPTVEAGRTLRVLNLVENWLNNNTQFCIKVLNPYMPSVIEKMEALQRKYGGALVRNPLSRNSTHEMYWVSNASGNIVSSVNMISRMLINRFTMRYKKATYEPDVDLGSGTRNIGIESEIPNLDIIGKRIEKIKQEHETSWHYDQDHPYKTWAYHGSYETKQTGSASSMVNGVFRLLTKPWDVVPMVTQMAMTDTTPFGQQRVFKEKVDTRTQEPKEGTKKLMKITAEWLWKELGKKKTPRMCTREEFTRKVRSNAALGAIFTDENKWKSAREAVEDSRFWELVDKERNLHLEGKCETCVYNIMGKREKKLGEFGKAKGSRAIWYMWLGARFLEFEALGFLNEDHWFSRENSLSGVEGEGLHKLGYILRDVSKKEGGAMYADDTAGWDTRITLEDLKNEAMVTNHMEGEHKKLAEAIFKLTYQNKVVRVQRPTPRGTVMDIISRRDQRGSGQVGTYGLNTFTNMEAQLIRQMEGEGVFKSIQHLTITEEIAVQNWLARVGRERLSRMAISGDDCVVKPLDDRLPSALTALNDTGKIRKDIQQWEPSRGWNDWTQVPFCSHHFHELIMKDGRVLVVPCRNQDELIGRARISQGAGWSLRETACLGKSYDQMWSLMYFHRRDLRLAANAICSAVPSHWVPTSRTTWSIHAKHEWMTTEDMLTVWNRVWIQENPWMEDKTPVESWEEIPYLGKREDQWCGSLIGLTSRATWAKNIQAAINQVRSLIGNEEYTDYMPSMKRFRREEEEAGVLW

Sequence of Paired box protein Pax-8 (Q06710 whole entry): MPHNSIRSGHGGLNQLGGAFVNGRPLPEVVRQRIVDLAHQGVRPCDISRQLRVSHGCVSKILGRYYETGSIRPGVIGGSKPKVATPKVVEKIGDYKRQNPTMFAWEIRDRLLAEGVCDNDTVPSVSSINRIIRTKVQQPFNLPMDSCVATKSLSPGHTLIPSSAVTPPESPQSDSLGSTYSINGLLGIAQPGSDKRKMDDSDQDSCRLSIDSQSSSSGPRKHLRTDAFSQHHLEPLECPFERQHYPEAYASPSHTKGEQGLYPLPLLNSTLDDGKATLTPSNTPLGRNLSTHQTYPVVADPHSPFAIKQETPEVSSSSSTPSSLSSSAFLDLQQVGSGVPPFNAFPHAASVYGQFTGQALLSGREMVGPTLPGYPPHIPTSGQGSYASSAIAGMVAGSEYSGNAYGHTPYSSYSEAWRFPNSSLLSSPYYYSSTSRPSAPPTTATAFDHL

Take `Cc1ccc(-n2nnnc2SCC(=O)c2c(N)n(C3CC3)c(=O)[nH]c2=O)cc1C`: the EC50 in assay [1] and in assay [2] was > 99 µM (inactive) each time.
In the case of `Cc1ccc(NC2=C(N3CCCCC3)C(=O)c3ccccc3C2=O)cc1`, the concentration giving a half-maximal response (EC50) in [3] is > 30 µM (not active); on Protein RecA, 0.619 µM (active); in [8], 0.629 µM (active). Further, the IC50 in [4] was > 128 µM (inactive); in assay [5], 4.88 µM (active). The AC50 in the assay with INS1 was 0.489 µM (active); in assay [6], 7.31 µM (active); in assay [7], 11 µM (active).
Consider `CC(C)Nc1nnc(SCC(=O)c2c(N)n(Cc3ccccc3)c(=O)n(C)c2=O)s1`, for which the half-maximal activity concentration (AC50) in the assay on HEK293 is 101 µM (active).
As for `Nc1nc(Sc2ccc([N+](=O)[O-])c3nonc23)c2[nH]cnc2n1`, the half-maximal activity concentration (AC50) is 2.17 µM (active) at Paired box protein Pax-8 and 5.68 µM (active) on Caspase-6. For the same molecule, the figures for the IC50 (in assay [9]; at Genome polyprotein) were 49.7 µM (active) and 16 µM (active), respectively.
